Like-named read-outs stand apart in the source and are kept apart here.
Legend:
[1] = test system: AD101- and SCH-D-resistant HIV-1 variants; settings: primary CD4+ T-cells; cited from earlier work
[2] = test system: HIV-1 Env-mediated fusion (HeLa-EnvJRFL with CEM NKR-CCR5 cells); test: HIV-1 RET cell-cell fusion assay (Part II, combination testing); type: cell-based; settings: Drug 1 SCH-D with Drug 2 TAK-779, molar ratio 1:1
Method: Briefly, fluorescein octadecyl ester (F18; Molecular Probes, Eugene, Oreg.; 5 mg/ml in ethanol), was diluted 1:800 in DMEM labeling medium (DMEM; Invitrogen, Carlsbad, Calif.) with 10% fetal bovine serum (FBS; HyClone, Logan, Utah) and adjusted to an A506 of 0.34±10%. Octadecyl rhodamine B chloride (R18; Molecular Probes; 10 mg/ml in ethanol) was diluted 1:2050 in labeling medium and adjusted to an A565 of 0.52±10%. Both dyes were further diluted 2-fold by addition to cells in T75-cm^2 flasks. HeLa-EnvJRFL and CEM NKR-CCR5 cells were incubated overnight in F18- and R18-containing culture medium, respectively. […] The centrifugation/wash step was repeated twice, after which the cells were counted and concentrations adjusted to 1.5×10^6 cells/ml. […] The plates were then read on a fluorescence plate reader (Victor^2, Perkin Elmer, Boston, Mass.) using the excitation/emission filter combinations shown in Table 6.
The “% RET” was calculated according to the following formula after subtraction of background (blank) readings: […]
The “% Inhibition” was calculated according to the following formula: […]
Fifty percent inhibition (IC50) values were determined by fitting the inhibition data with a non-linear, four-parameter, variable slope equation (GraphPad Prism, 4.02; GraphPad Software, San Diego, Calif.). […]

CCR5 [3] = molecular target: T1, CCR5 (Homo sapiens, UniProt P51681); test: Competition binding: inhibition of 3H-UK-427,857 binding to CEM.NKR-CCR5 cells
T1 construct: host or cells: CEM.NKR (human T cell leukemia line), transduced with CCR5
Excerpt: Cells were washed and then analyzed for radioactivity by scintillation counting.
The cells were washed in PBSA and lysed with 0.5N HCl prior to scintillation counting using a Wallac 1410 instrument.

CCR5 [4] = molecular target: T1, CCR5; test: Competition binding: inhibition of PRO 140-PE binding to CEM.NKR-CCR5 cells (flow cytometry); settings: for Inhibition of PRO 140-PE binding: unlabeled inhibitor pre-incubated 30 min, 5 nM PRO 140-PE
Method: Inhibition was assessed on the basis of both MFI (A) and percent cells gated (B).
Azide was added to block CCR5 internalization during the assay.

[5] = test system: reporter virus pseudotyped with HIV-1JR-FL envelope; type: cell-based
Method: (§1) Cultures were incubated for 72 h at 37° C. in DMEM containing 10% fetal bovine serum, 1 mg/mL puromycin, 0.3 mg/mL geneticin, antibiotics, and 0.5% DMSO. Luciferase activity (relative light units or RLU) was measured using BrightGlo reagent (Promega, Madison, Wis.) according to the manufacturer's instructions. Percent inhibition was calculated as: (1−RLU in the presence of inhibitor/RLU in the absence of inhibitor)×100.
(§2) Experimental design and data analysis were based on the combination index (CI) method (Chou et al. 1991; Chou et al. 1984). Compounds were tested individually and in combination at a fixed molar ratio over a range of serial dilutions. […] The mutually exclusive CI formula was used for combinations of CCR5 inhibitors, while the mutually non-exclusive formula was utilized for combinations of inhibitors to distinct targets (Chou et al. 1991). Each test was conducted 4-12 times. Synergy, additivity and antagonism are indicated by CI<1, CI=1 and CI>1, respectively.

[6] = test system: reporter virus pseudotyped with HIV-1SF162 envelope; type: cell-based; settings: 2nd inhibitor PRO 140, equimolar, 1:10 PRO 140 to zidovudine or nevirapine
Method: as §1, §2

[7] = test system: HIV-1JR-FL envelope-mediated membrane fusion; type: cell-based
Excerpt: HIV-1 envelope-mediated membrane fusion was examined using a fluorescence resonance energy transfer (RET) assay (Litwin et al. 1996) with modifications. Briefly, HeLa cells that stably express HIV-1JR-FL gp120/gp41 (Litwin et al. 1996) and CEM.NKR-CCR5 cells (NIH AIDS Research and Reference Reagent Program, (Spenlehauer et al. 2001; Trkola et al. 1999)) were labeled separately overnight with fluorescein octadecyl ester (F18; Molecular Probes, Eugene, Oreg.) and rhodamine octadecyl ester (R18; Molecular Probes), respectively. […] The CD4 mAb Leu3a was used as a control inhibitor, and percent inhibition was calculated as: (RET in the absence of inhibitor−RET in the presence of inhibitor)/(RET in the absence of inhibitor−RET in the presence of Leu3a)×100.
as §2
Twenty-two synergy comparisons (11 compounds×2 CI values) were made based on data generated in the membrane fusion assay, resulting in a corrected P value of 0.0023.

HIV-1 = settings: cited from earlier work
[8] = in vivo; cited from earlier work
[9] = single administration of solution; cited from earlier work
HIV-1JR-CSF = test: hu-PBL-SCID mouse model of HIV-1 infection; type: in vivo, SCID mice; settings: multiple doses after steady state viral levels
Method: SCID mice were reconstituted with normal human peripheral blood mononuclear cells and infected 2 weeks later with HIV-1JR-CSF. Multiple doses of PRO 140 were administered following attainment of steady state viral levels. Plasma viral loads pre- and post-injection are indicated.

CCR5 [10] = molecular target: T1, CCR5; test: RANTES-induced calcium mobilization in L1.2-CCR5 cells; type: cell-based; settings: FIG. 4
Excerpt: Similar results were obtained for […] and MIP-1β.

[11] = design: species or system human; settings: in vivo
Method: At the indicated times post-treatment, serum was collected, cryopreserved, and analyzed for PRO 140 levels. Data for individual patients are indicated.
Sera were diluted as appropriate and combined with L1.2-CCR5 cells, which are mouse pre-B lymphoma cells engineered to stably express human CCR5. […] Following incubation with test samples, cells were washed and combined with a FITC-labeled sheep antibody against human IgG4 (The Binding Site Limited, Cat. #AF009). Cells were washed again and analyzed by flow cytometry.
Serum was collected post-treatment, cryopreserved, and analyzed for PRO 140 levels. Peak serum concentrations ranged to […] at 0.1 mg/kg and […] at 0.5 mg/kg.

CCR5 lymphocytes = type: in vivo, human
Method: At the indicated times post-treatment, blood was collected and analyzed for CCR5 lymphocyte levels. The group mean values and standard deviations are indicated.
Whole blood specimens were combined separately with the indicated phycoerythrin-labeled anti-CCR5 antibodies or with appropriate isotype-control antibodies. Erythocytes were lysed and leukocytes were stabilized using the ImmunoPrep Reagent System (Beckman Coulter), and the cells were analyzed on a TQ Prep™ flow cytometry workstation (Beckman Coulter). Data were expressed as the percent of CCR5 cells relative to all cells gated in the analysis.
For up to 60 days post-treatment, at the times indicated in FIG. 6, blood was collected and analyzed for CCR5 lymphocyte levels.

[12] = envelope JRFL, 2nd inhibitor PRO 140, equimolar, 1:10 PRO 140 to zidovudine or nevirapine
[13] = labelled 1st inhibitor with 2nd inhibitor PRO 140, equimolar
[14] = labelled 1st inhibitor with 2nd inhibitor UK-427,857, equimolar

T1 sequence (P51681 whole entry): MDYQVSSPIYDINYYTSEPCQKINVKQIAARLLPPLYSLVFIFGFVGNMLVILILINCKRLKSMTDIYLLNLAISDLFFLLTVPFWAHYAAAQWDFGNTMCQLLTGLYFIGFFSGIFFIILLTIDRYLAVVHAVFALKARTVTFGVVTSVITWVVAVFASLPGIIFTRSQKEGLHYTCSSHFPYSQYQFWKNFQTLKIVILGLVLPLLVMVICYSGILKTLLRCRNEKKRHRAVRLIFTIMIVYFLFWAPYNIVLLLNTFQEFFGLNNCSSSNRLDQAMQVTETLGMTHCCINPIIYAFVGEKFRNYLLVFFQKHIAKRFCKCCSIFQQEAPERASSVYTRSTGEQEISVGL

COC[C@@H](c1ccc(C(F)(F)F)cc1)N1CCN(C2(C)CCN(C(=O)c3c(C)ncnc3C)CC2)C[C@@H]1C [SCH-D, 1-[(4,6-dimethyl-5pyrimidinyl)carbonyl]-4 [4-[2-methoxy-1(R)-4-(trifluoromethyl)phenyl]ethyl-3 (S)-methyl-1-piperazinyl]-4-methylpiperidine]
Sensitivity of SCH-D-resistant HIV-1 variant [1]: resistant
Mean DR (Drug 2) [2]: 4.31 ± 1.82
Displacement of pre-bound 3H-UK-427,857 by unlabeled compound (CCR5 [3]): wasn't displaced
Effect on percent of cells gated for positive binding of PRO 140-PE (CCR5 [4]; FIG. 16B): little impact
Inhibition of PRO 140-PE binding (CCR5 [4]): modest levels of inhibition
CI50 [5, 12]: 0.47 ± 0.15
CI90 [5, 12]: 0.18 ± 0.04
CI50 [6]: 0.60 ± 0.17
CI90 [6]: 0.28 ± 0.11

RANTES: CC-chemokine that serves as a natural ligand for CCR5
CI50 [7, 13]: 0.59 ± 0.08
CI90 [7, 13]: 0.43 ± 0.05
CI50 [7, 14]: 0.48 ± 0.03
CI90 [7, 14]: 0.18 ± 0.01

CCCCOCCOc1ccc(-c2ccc3c(c2)/C=C(/C(=O)Nc2ccc(OCc4cncn4CCC)cc2)CCCN3CC(C)C)cc1 [TAK-652]
Anti-HIV-1 activity in vitro (HIV-1): nanomolar range
Oral bioavailability [8]: orally bioavailable
Safety and tolerability [9]: safe and well tolerated

Cc1ccc(-c2ccc3c(c2)C=C(C(=O)Nc2ccc(C[N+](C)(C)C4CCOCC4)cc2)CCC3)cc1.[Cl-] [TAK-779]
Oral bioavailability [8]: poor oral bioavailability
Inhibition of HIV-1 pseudovirus entry ([5]; compound alone, data not shown): Neither TAK-779 nor RANTES mediated consistent, high-level inhibition

CCO/N=C(\c1ccc(Br)cc1)C1CCN(C2(C)CCN(C(=O)c3c(C)cc[n+]([O-])c3C)CC2)CC1 [SCH-C]
Sensitivity of AD101-resistant HIV-1 variant [1]: resistant

B1: PRO 140: humanized IgG4,κ anti-CCR5 monoclonal antibody, humanized version of murine mAb PA14 (antibody, chains of the INN, looked up, V domains shown)
VH: EVQLVESGGGLVKPGGSLRLSCAASGYTFSNYWIGWVRQAPGKGLEWIGDIYPGGNYIRNNEKFKDKTTLSADTSKNTAYLQMNSLKTEDTAVYYCGSSFGSNYVFAWFTYWGQGTLVTVSS
VL: DIVMTQSPLSLPVTPGEPASISCRSSQRLLSSYGHTYLHWYLQKPGQSPQLLIYEVSNRFSGVPDRFSGSGSGTDFTLKISRVEAEDVGVYYCSQSTHVPLTFGQGTKVEIK
Control of viral replication (plasma viral load) (HIV-1JR-CSF): prolonged control of viral replication
Displacement of pre-bound 3H-UK-427,857 by unlabeled compound (CCR5 [3]; cells pre-incubated with 2 nM 3H-UK-427,857, unlabeled compound 30 min): wasn't displaced
Effect on RANTES-induced calcium mobilization versus HIV-1JR-FL replication in PBMC (CCR5 [10]): blocks HIV-1 but not chemokine signaling
Inhibition of PRO 140-PE binding (CCR5 [4]): Complete inhibition
Dose dependence of serum concentrations [11]: increased proportionally with dose level
Overall number of CCR5 lymphocytes (CTC5 binding) (CCR5 lymphocytes; in vivo, iv, 2 mg/kg): no decrease
Binding of antibody 2D7 (CCR5 lymphocytes not coated with PRO 140) (CCR5 lymphocytes; single 2 mg/kg intravenous infusion): significantly decreased

Reference: US20140377259A1, “METHODS FOR INHIBITING HIV-1 REPLICATION INVOLVING THE ADMINISTRATION OF AN ANTI-CCR5 RECEPTOR MONOCLONAL ANTIBODY AND SMALL MOLECULE CCR5 RECEPTOR ANTAGONIST” (CytoDyn Inc., priority 2005, published 2014)
